Reference: paper PMC7054097, “Vanillin Production in Pseudomonas: Whole-Genome Sequencing of Pseudomonas sp. Strain 9.1 and Reannotation of Pseudomonas putida CalA as a Vanillin Reductase” (Applied and Environmental Microbiology, 2020)

Key:
[1] = target: T1, PP_3839 (adhP) gene product; calA-II (coniferyl alcohol dehydrogenase) (Pseudomonas putida, UniProt Q88G86); test: soluble cell extract, absorbance at […] nm; assay type: biochemical; details: 0.5 mM NAD+, 1 mM coniferyl alcohol, 33 mM sodium phosphate pH 7, 30 °C
T1 construct: whole cells or soluble extract

[2] = target: T1, PP_3839 (adhP) gene product; calA-II (coniferyl alcohol dehydrogenase); test: soluble cell extract, absorbance at […] nm; also whole-cell HPLC; assay type: biochemical; details: 1 mM substrate, 0.5 mM NAD+, 33 mM sodium phosphate pH 7, 30 °C

T1 sequence (Q88G86 1-336): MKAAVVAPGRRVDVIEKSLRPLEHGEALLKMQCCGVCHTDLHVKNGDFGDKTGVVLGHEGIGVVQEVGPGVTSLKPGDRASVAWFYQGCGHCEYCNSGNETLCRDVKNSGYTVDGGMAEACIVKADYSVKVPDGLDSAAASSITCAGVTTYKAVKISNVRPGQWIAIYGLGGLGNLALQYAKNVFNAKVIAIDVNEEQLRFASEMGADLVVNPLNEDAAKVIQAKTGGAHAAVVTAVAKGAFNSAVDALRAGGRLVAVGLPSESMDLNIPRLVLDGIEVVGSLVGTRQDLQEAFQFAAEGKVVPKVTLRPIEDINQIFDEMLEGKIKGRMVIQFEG

Structure (SMILES) | soluble cell extract, absorbance at 365 nm [1] | soluble cell extract, absorbance at 365 nm; also whole-cell HPLC [2]
NC(=O)c1ccc[n+]([C@@H]2O[C@H](COP(=O)(O)OP(=O)(O)OC[C@H]3O[C@@H](n4cnc5c(N)ncnc54)[C@H](O)[C@@H]3O)[C@@H](O)[C@H]2O)c1 [NAD^+] | coniferyl alcohol was rapidly oxidized in the presence of NAD^+ | –
COc1cc(/C=C/CO)ccc1O [coniferyl alcohol] | – | coniferyl alcohol was rapidly oxidized in the presence of NAD^+
